Test system: Plasmodium falciparum
Experiment: Antiplasmodial activity against Plasmodium falciparum 3D7 late ring stages and early trophozoites forms infected in human erythrocytes assessed as parasite growth inhibition by LDH release assay
Type: functional, organism-based

## CCCCCCCCCCC/C=C(\C)C(=O)C(C)(C)C(=O)OC[C@@H](O)COCC[C@@H](C(=O)[O-])[N+](C)(C)C
  IC50: 7 µM

Reference: ChEMBL document CHEMBL3352318, “MDN-0104, an antiplasmodial betaine lipid from Heterospora chenopodii” (J Nat Prod, 2014)
